Laboratory results published in publication PMC4457358, “Structure–activity studies in the development of a hydrazone based inhibitor of adipose-triglyceride lipase (ATGL)” (Bioorganic & Medicinal Chemistry, 2015).
“Also recorded” adds a separate entry of the source.

Columns and labels:
[1] = target: T1, monoglyceride lipase (MGL) (Mus musculus, UniProt O35678); assay: MG hydrolase activity with recombinant purified mMGL; assay type: biochemical; details: 100 µM compound
T1 sequence (O35678 1-303): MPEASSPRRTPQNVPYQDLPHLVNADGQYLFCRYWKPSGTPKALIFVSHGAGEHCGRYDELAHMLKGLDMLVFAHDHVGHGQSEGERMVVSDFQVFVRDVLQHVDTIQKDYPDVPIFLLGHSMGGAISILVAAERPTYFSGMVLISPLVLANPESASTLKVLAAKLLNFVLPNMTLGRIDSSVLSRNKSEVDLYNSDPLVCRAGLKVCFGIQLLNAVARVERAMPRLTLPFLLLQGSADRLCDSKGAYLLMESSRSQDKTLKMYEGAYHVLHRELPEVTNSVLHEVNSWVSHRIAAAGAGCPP
Description: (§1) Structure-activity studies in the development of a hydrazone based inhibitor of adipose-triglyceride lipase (ATGL)
(§2) Nicole Mayer, Martina Schweiger, Michaela-Christina Melcher, Christian Fledelius, Rudolf Zechner, Robert Zimmermann and Rolf Breinbauer […]
(§3) µM Inhibitor µM Inhibitor
(§4) Fig. S1: Selectivity tests of 1a and 1h with white adipose tissue fat pads of wt, ATGL-ko, and […]
Fig S2. LPL (left) and Monoglyceride hydrolase (MGH) (right) activities in the absence or presence of 100 µM compound 1h.
(§5) (also on this page, place not known: µmol glycerol/h*mg protein nmol FFA/ml/min nmol FFA/h*mg nmol FFA/h*mg) […]
(§6) Lipolysis of isolated WAT organ cultures - Gonadal fat pads of wild-type, ATGL deficient (ATGL-ko), and HSL deficient (HSL-ko) mice were surgically removed and washed several times with PBS.
Tissue pieces (~15 mg) were preincubated in DMEM containing 0, 10, 100, and 200 µM inhibitors for 8 h at C37°C, 5% CO2, 95 % humidified atmosphere. […] Then, aliquots of the medium were removed and analyzed for FA and glycerol content using commercial kits (HR Series NEFA-HR(2), WAKO Diagnostics, Neuss, Germany; Sigma, St. […]
viability assays, cells were seeded at an initial density of […] cells per well in 12-well plates and cultured under standard conditions for 24 hours. […] After solubilization for 10 min at room temperature absorbance was measured at 540 nm. […]

lipoprotein lipase = assay: LPL activity with purified recombinant LPL and triolein substrate; assay type: biochemical; details: 100 µM compound
Description: The triolein (TO) substrate was prepared as described. In brief, 330 μM triolein (40,000 cpm/nmol) (GE Healthcare) was emulsified with 45 μM phosphatidylcholine/phosphatidylinositol (3:1) (Sigma) in 100 mM potassium phosphate buffer (pH 7.0) by sonication (Virsonic 475, Virtis) and was adjusted to 5% (w/v) fatty acid free bovine serum albumin (BSA, Sigma). 100 μL (20 μg protein) cell lysate or 2 μl purified recombinant LPL (Sigma–Aldrich) were incubated with 100 μL TO substrate in the presence or in the absence of inhibitors in a water bath for 1 h at 37 °C. After incubation, the reaction was terminated by adding 3.25 mL of methanol/chloroform/heptane (10:9:7) and 1 mL of 0.1 M potassium carbonate, 0.1 M boric acid (pH 10.5). After centrifugation (800 g, 15 min), the radioactivity in 1 mL of the upper phase was determined by liquid scintillation counting.
as §1, §2, §3, §4
Fig S2. LPL (left) and Monoglyceride hydrolase (MGH) (right) activities in the absence or presence of 100 µM compound 1h. […]

murine ATGL = target: T2, murine ATGL (Mus musculus, UniProt Q8BJ56); assay: Triglyceride hydrolase activity assay with COS7-cell lysate overexpressing recombinant murine ATGL, radiolabelled triolein substrate; assay type: biochemical; details: for inhibition at 200 µM: 1 h, ATGL-inhibition efficiency at 200 μM inhibitor, read-out: I200 (%); for IC50: COS7-cell lysate overexpressing murine ATGL;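 as to all read-outs here: radioactivity from the triolein substrate quantified by liquid scintillation counting after phase separation, reflecting triglyceride hydrolase activity of murine ATGL in lysates of transfected COS-7 cells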
T2 construct: expressed in transfected cells; host or cells: COS-7 (ATCC CRL-1651), transient transfection with Metafectene; crude lysate after 1000 x g spin
T2 sequence (Q8BJ56 1-486): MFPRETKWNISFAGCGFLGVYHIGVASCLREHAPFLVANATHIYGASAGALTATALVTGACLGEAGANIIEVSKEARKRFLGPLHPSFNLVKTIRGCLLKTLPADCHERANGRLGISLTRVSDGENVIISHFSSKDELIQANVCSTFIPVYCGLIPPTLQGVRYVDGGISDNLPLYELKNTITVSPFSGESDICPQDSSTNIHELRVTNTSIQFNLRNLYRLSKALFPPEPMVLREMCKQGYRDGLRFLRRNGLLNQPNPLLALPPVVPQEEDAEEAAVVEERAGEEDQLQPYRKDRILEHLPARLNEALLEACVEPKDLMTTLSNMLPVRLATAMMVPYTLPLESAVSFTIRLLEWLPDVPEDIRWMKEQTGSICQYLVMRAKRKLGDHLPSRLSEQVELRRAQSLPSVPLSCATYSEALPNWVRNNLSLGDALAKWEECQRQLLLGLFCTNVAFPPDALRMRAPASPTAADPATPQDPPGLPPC
Description: All synthesized test compounds were screened for their efficiency to inhibit ATGL activity in vitro in an assay using radiolabelled triolein as substrate.[20] As ATGL cannot be purified, the assays were performed with COS7-cell lysates from cells overexpressing recombinant murine ATGL. For the determination of the IC50-value inhibitors were administered with increasing concentrations to the enzyme and its substrate. To determine the ATGL-inhibition efficiency at 200 μM (I200), 200 μM inhibitor was administered to the enzyme and its substrate.
For the determination of TG hydrolase activity cell lysates of COS-7 cells overexpressing recombinant murine ATGL were used. Therefore, monkey embryonic kidney cells (Cos-7; ATCC CRL-1651) were cultivated in Dulbeccos modified eagles medium (DMEM, GIBCO, Invitrogen Corp., Carlsbad, CA), containing 10% fetal calf serum (FCS, Sigma–Aldrich) and antibiotics (100 IU/mL penicillin and 100 μg/mL streptomycin) at standard conditions (37 °C, 5% CO2, 95% humidified atmosphere). Cells were transfected with 1 μg DNA complexed to Metafectene (Biontex GmbH, Munich, Germany) in serum free DMEM. After 4 h the medium was replaced by DMEM supplemented with 10% FCS. For the preparation of cell lysates, cells were washed with 1× phosphate buffered saline, collected using a cell scraper, and disrupted in buffer A (0.25 M sucrose, 1 mM EDTA, 1 mM dithiothreitol, 20 μg/mL leupeptine, 2 μg/mL antipain, 1 μg/mL pepstatin, pH 7.0) by sonication (Virsonic 475, Virtis, Gardiner, NJ). Nuclei and unbroken cells were removed by centrifugation (1000×g, 4 °C, for 10 min). Protein concentration of the cell lysates were determined by Bio-Rad protein assay according to the manufacturer’s protocol (Bio-Rad 785, Bio-Rad Laboratories, Munich, Germany), using BSA as standard.
The triolein (TO) substrate was prepared as described. […] In brief, 330 μM triolein (40,000 cpm/nmol) (GE Healthcare) was emulsified with 45 μM phosphatidylcholine/phosphatidylinositol (3:1) (Sigma) in 100 mM potassium phosphate buffer (pH 7.0) by sonication (Virsonic 475, Virtis) and was adjusted to 5% (w/v) fatty acid free bovine serum albumin (BSA, Sigma). 100 μL (20 μg protein) cell lysate or 2 μl purified recombinant LPL (Sigma–Aldrich) were incubated with 100 μL TO substrate in the presence or in the absence of inhibitors in a water bath for 1 h at 37 °C. After incubation, the reaction was terminated by adding 3.25 mL of methanol/chloroform/heptane (10:9:7) and 1 mL of 0.1 M potassium carbonate, 0.1 M boric acid (pH 10.5). After centrifugation (800 g, 15 min), the radioactivity in 1 mL of the upper phase was determined by liquid scintillation counting.

[2] = tested on: WAT (white adipose tissue) organ cultures; assay: Lipolysis of isolated WAT organ cultures of wild-type, ATGL-ko and HSL-ko mice (FA release); assay type: cell-based; details: for FA release (lipolysis): 0, 10, 100, 200 µM inhibitor, fat pads of wt, ATGL-ko, HSL-ko mice; for selectivity between ATGL and HSL: lipolysis similarly decreased in ATGL and HSL deficient adipose tissue
Source text: As the hydrazone moiety is regarded as a problematic molecular group due to its metabolic instability resulting in toxic side products,[12] we prepared compound 8 which can be regarded as a variant of 1a missing one nitrogen atom (Scheme 5). […] Taken together these efforts have shown that the hydrazone moiety is an essential element of the biological activity of the hit compound 1a and could not be replaced by the most obvious structural isosteres. In order to further characterize our hit compound 1a and best inhibitor 1h, these compounds were tested for ATGL- and HSL-selectivity by the determination of lipolysis in WAT (white adipose tissue) organ cultures of wild-type, ATGL-ko, and HSL-ko mice. […]
µM Inhibitor µM Inhibitor […]
as §5, §6
(§7) Tissue pieces (~15 mg) were preincubated in DMEM containing 0, 10, 100, and 200 µM inhibitors for 8 h at C37°C, 5% CO2, 95 % humidified atmosphere. Thereafter, the medium was replaced by DMEM containing 2 % BSA (fatty acid-free) and 0, 10, 100, and 200 µM inhibitors, and incubated for another 60 min at 37°C. Then, aliquots of the medium were removed and analyzed for FA and glycerol content using commercial kits (HR Series NEFA-HR(2), WAKO Diagnostics, Neuss, Germany; Sigma, St.
Louis, MO). For protein determinations, fat pads were washed extensively with PBS and lysed in 0.3 […]
U. et al. Monoglyceride lipase deficiency in mice impairs lipolysis and attenuates diet-induced insulin

[3] = tested on: AML-12 mouse hepatocytes cells; assay: Tox 4 toxicity test (neutral red viability); assay type: cell-based; details: 1, 10, 100, 200 µM inhibitor
Description: Fig. S3: Toxicity test of inhibitor 1h using Tox 4-test with AML-12 mouse hepatocytes cells […]
as §6, §7
Louis, MO). […]
viability assays, cells were seeded at an initial density of […] cells per well in 12-well plates and cultured under standard conditions for 24 hours. […] After solubilization for 10 min at room temperature absorbance was measured at 540 nm.
Determination of MG hydrolase activity. Monoacylglycerol hydrolase activities were determined using recombinant, purified mMGL and rac-1-(3)-oleoylglycerol as substrate as described (Taschler, U. et al. Monoglyceride lipase deficiency in mice impairs lipolysis and attenuates diet-induced insulin

Row | SMILES | inhibition of monoglyceride lipase (MGL) [1] | melting point | inhibition of lipoprotein lipase (lipoprotein lipase) | inhibition at 200 µM (murine ATGL) | IC50 (murine ATGL) | FA release (lipolysis) [2] | selectivity between ATGL and HSL [2] | toxicity (Tox 4 toxicity test) [3]
1 | Oc1ccc(/C=N/N2CCN(c3ccccc3)CC2)c(O)c1 [Compound 1h, (E)-4-(4-Phenylpiperazin-1-ylimino)methylbenzene-1,3-diol] | does not inhibit | 183 to 184 °C | does not inhibit | 94% | 10 µM | dose dependent reduction of FA release | no selectivity; also recorded: limited specificity | toxic; also recorded: intrinsic toxicity
2 | Oc1ccc(/C=N/N2CCN(c3ccccc3)CC2)cc1O [Compound 1a, (E)-4-((4-Phenylpiperazin-1-ylimino)methyl)benzene-1,2-diol] | – | 180 °C | – | 69% | 110 µM | dose dependent reduction of FA release | no selectivity | –
3 | Oc1ccc(/C=N/N2CCN(c3ccncc3)CC2)c(O)c1 [Compound 3a, (E)-4-((4-(Pyridine-4-yl)piperazin-1-ylimino)methyl)benzene-1,3-diol] | – | 270 to 273 °C (dec.) | – | 19% | – | – | – | –
4 | Oc1ccc(/C=N/N2CCN(C3CCCCC3)CC2)c(O)c1 [Compound 3f, (E)-4-((4-Cyclohexylpiperazin-1-ylimino)methyl)benzene-1,3-diol] | – | 247 to 249 °C (dec.) | – | 25% | – | – | – | –
5 | C(=N\N1CCN(c2ccccc2)CC1)/C1CCCCC1 [Compound 2c, (E)-N-(Cyclohexylmethylen)-4-phenylpiperazin-1-amine] | – | 69 to 71 °C | – | 49% | – | – | – | –
6 | C(=N\N1CCN(c2ccccc2)CC1)/c1ccc2ccccc2c1 [Compound 2h, (E)-N-(Naphthalene-2-ylmethylen)-4-phenylpiperazin-1-amine] | – | 195 to 198 °C (dec.) | – | < 1% | – | – | – | –
7 | C(=N\N1CCN(c2ccccc2)CC1)/c1ccc2ccccc2n1 [Compound 2i, (E)-4-Phenyl-N-(quinoline-2-ylmethylen)-piperazin-1-amine] | – | 210 to 212 °C | – | 8% | – | – | – | –
8 | Brc1ccccc1/C=N/N1CCN(c2ccccc2)CC1 [Compound 1q, (E)-N-(2-Bromobenzylidene)-4-phenylpiperazin-1-amine] | – | 88 to 90 °C | – | 73% | – | – | – | –
9 | Oc1ccc(/C=N/N2CCN(C3CCCC3)CC2)c(O)c1 [Compound 3g, (E)-4-((4-Cyclopentylpiperazin-1-ylimino)methyl)benzene-1,3-diol] | – | 237 to 239 °C (dec.) | – | 36% | – | – | – | –
10 | CCC/C=C/C=N/N1CCN(c2ccccc2)CC1 [Compound 2b, (E)-N-((E)-Hex-2-enyliden)-4-phenylpiperazin-1-amine] | – | 48 °C | – | 12% | – | – | – | –
11 | Oc1ccc(/C=N/N2CCC(Cc3ccccc3)CC2)c(O)c1 [Compound 3i, (E)-4-((4-benzylpiperidine-1-ylimino)methyl)benzene-1,3-diol] | – | 138 to 141 °C | – | 26% | – | – | – | –
